Each block holds one compound with its values, some of them ahead of it.
Key:
[1] = target: T1, epidermal growth factor receptor-tyrosine kinase complex (Homo sapiens, UniProt P00533); assay: Tyrosine kinase inhibiting activity (A-431 membrane preparation, EGF-stimulated); assay type: biochemical; settings: read-out: Tyrosine kinase inhibition rate; for inhibition at 1 µM: 1 μM in the reaction mixture; for inhibition at 10 µM: 10 μM in the reaction mixture
T1 construct: The membrane preparation was employed in the following measurement without solubilization; endogenous in cells; host or cells: A-431 (ATCC CRL1555), membrane preparation, not solubilized
T1 sequence (P00533 25-1210, one chain of several): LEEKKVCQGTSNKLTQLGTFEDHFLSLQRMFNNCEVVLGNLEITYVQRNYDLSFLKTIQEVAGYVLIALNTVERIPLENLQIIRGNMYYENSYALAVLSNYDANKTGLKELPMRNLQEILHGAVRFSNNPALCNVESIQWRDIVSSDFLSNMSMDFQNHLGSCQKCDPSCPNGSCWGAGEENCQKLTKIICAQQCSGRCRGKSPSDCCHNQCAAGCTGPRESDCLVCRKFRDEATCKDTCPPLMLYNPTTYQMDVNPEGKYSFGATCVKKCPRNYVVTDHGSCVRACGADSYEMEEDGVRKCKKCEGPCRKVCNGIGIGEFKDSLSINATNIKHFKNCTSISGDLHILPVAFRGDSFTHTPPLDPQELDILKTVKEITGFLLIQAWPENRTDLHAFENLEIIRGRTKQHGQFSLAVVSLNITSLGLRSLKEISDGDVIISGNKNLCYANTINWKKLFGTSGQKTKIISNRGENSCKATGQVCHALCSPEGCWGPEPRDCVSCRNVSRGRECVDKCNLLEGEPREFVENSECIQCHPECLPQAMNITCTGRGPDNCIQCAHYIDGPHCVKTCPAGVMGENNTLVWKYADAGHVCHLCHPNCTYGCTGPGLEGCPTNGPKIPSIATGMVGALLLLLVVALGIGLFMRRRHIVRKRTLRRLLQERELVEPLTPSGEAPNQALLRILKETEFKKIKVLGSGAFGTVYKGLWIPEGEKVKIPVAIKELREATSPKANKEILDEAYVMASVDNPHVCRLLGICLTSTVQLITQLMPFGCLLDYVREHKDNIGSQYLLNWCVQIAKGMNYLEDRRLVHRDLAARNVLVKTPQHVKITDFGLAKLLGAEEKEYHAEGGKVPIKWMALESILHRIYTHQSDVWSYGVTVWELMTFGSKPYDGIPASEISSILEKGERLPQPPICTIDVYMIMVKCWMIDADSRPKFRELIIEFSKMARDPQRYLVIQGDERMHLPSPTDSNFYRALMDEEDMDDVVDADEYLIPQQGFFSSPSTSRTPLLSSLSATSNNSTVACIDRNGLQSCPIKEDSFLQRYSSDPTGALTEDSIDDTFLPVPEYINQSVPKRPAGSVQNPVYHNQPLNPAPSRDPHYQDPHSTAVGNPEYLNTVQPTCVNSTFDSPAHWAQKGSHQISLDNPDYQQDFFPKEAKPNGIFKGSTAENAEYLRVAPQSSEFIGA
How it was run: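 Unsolubilized A-431 membranes (10 μg protein) in 20 mM HEPES pH 7.4 with 1 mM MnCl2 were preincubated with compound (DMSO) 5 min at 0° C, stimulated with 100 ng EGF 15 min, then phosphorylated with [γ-32P]ATP 15 min at 0° C. TCA-precipitated radioactivity on filter counted; inhibition % calculated against no-EGF and no-compound controls.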

[2] = target: T2, 5-lipoxygenase (Cavia porcellus, UniProt A0A286X958); assay: 5-Lipoxygenase inhibiting activity (5-HETE formation, cytosol of peritoneal exudate cells); assay type: biochemical, Hartley guinea pigs; settings: read-out: Inhibition rate (5-lipoxygenase); for inhibition at 1 µM: 1 μM in the reaction mixture; for inhibition at 10 µM: 10 μM in the reaction mixture
T2 construct: The cytosol fraction was used as an enzyme solution; from tissue; host or cells: peritoneal exudate cells of casein-injected Hartley guinea pigs, 105,000×g cytosol
T2 sequence (A0A286X958 1-674): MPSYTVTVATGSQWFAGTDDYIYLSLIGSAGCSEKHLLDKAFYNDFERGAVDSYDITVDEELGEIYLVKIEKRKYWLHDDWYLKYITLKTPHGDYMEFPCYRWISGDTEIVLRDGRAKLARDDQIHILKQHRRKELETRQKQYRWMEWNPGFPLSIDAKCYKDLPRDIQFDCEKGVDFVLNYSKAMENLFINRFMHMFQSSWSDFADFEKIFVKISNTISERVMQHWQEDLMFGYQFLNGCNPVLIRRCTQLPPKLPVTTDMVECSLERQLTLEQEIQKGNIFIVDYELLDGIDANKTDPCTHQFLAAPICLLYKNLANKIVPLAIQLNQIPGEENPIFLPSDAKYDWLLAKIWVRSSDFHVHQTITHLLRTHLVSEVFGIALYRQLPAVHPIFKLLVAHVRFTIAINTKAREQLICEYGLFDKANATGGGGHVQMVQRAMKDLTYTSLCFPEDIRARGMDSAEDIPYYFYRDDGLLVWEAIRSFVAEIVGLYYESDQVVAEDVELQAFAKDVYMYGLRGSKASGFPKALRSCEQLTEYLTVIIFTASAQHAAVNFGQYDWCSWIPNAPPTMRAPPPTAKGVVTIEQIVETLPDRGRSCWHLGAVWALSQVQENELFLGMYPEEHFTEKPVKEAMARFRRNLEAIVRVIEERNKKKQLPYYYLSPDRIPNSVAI
How it was run: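 Enzyme source: cytosol (105,000×g supernatant) of casein-elicited guinea pig peritoneal exudate cells, preincubated 5 min at 30 °C with compound (2% ethanol final), 1 mM CaCl2, 1 mM GSH, 2 mM ATP, then 5 min with 20 μM [1-14C]arachidonic acid. 5-HETE separated by TLC, counted by scintillation; % inhibition versus ethanol control.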

SMILES: CCCCOc1cc(C=C2SC(=S)NC2=O)cc(Cc2ccccc2)c1O [Compound 10]
- inhibition at 1 µM [1]: 40%
- inhibition at 1 µM [2]: 23%

SMILES: CC(C)c1cc(C=C2SC(NCc3ccc(F)cc3)=NC2=O)cc(C(C)C)c1O [Compound 35]
- inhibition at 1 µM [1]: 70%
- inhibition at 10 µM [2]: 89%

SMILES: O=C1NC(=S)SC1=Cc1cc(O)c(O)c(CSc2ccccc2)c1 [Compound 7]
- inhibition at 10 µM [1]: 59%
- inhibition at 1 µM [2]: 88%

SMILES: CCCCOc1cc(C=C2SC(=S)NC2=O)cc(CSc2ccccc2)c1O [Compound 9]
- inhibition at 10 µM [1]: 50%
- inhibition at 1 µM [2]: 91%

- inhibition at 10 µM [1]: 69%
- inhibition at 10 µM [2]: 82%
SMILES: CC(C)c1cc(C=C2SC(NCc3ccccc3)=NC2=O)cc(C(C)C)c1O [Compound 33]

SMILES: O=C1NC(=S)SC1=Cc1cc(CSc2ccccc2)c(O)c(OCc2ccccc2)c1 [Compound 8]
- inhibition at 10 µM [1]: 69%
- inhibition at 1 µM [2]: 61%

SMILES: O=C1NN(c2ccccc2)C(=O)C1=Cc1cc(Cc2ccccc2)c(O)c(Cc2ccccc2)c1 [Compound 20]
- inhibition at 1 µM [1]: 46%
- inhibition at 10 µM [2]: 83%

SMILES: CC(C)c1cc(C=C2SC(NCc3ccc(S(N)(=O)=O)cc3)=NC2=O)cc(C(C)C)c1O [Compound 41]
- inhibition at 10 µM [1]: 70%
- inhibition at 10 µM [2]: 89%

SMILES: O=C1N=C(NCc2cccs2)SC1=Cc1cc(CSc2ccccc2)c(O)c(OCc2ccccc2)c1 [Compound 31]
- inhibition at 10 µM [1]: 41%
- inhibition at 1 µM [2]: 49%

SMILES: CC(C)c1cc(C=C2SC(NCc3ccc(Cl)c(Cl)c3)=NC2=O)cc(C(C)C)c1O [Compound 37]
- inhibition at 10 µM [1]: 83%
- inhibition at 10 µM [2]: 89%

SMILES: Cc1ccc(CNC2=NC(=O)C(=Cc3cc(C(C)C)c(O)c(C(C)C)c3)S2)cc1 [Compound 39]
- inhibition at 10 µM [1]: 43%
- inhibition at 10 µM [2]: 87%

SMILES: O=C1NC(=S)SC1=Cc1cc(Cc2ccccc2)c(O)c(Cc2ccccc2)c1 [Compound 2]
- inhibition at 1 µM [1]: 20%
- inhibition at 10 µM [2]: 78%

SMILES: CC(C)c1cc(C=C2SC(NCc3ccc(N)cc3)=NC2=O)cc(C(C)C)c1O [Compound 42]
- inhibition at 1 µM [1]: 85%
- inhibition at 10 µM [2]: 88%

SMILES: O=C1Nc2ccccc2C1=Cc1cc(O)c(O)c(CSc2ccccc2)c1 [Compound 11]
- inhibition at 10 µM [1]: 52%
- inhibition at 1 µM [2]: 87%

SMILES: O=C1N=C(NCc2ccccc2)SC1=Cc1cc(Cc2ccccc2)c(O)c(Cc2ccccc2)c1 [Compound 26]
- inhibition at 10 µM [1]: 62%
- inhibition at 1 µM [2]: 84%

SMILES: O=C1NN(c2ccccc2)C(=O)C1=Cc1cc(O)c(O)c(Cc2ccccc2)c1 [Compound 24]
- inhibition at 1 µM [1]: 37%
- inhibition at 1 µM [2]: 48%

From patent publication US5089516A, “1-phenyl-3,5-pyrazolidinedione hydroxystyrene compounds which have tyrosine kinase inhibiting activity” (Kanegafuchi Kagaku Kogyo Kabushiki Kaisha, priority 1987, dated 1992)
